Consider 20 molecules from US20170152245A1 (National Taiwan University, priority 2015, published 2017).

Assay [1] concerns human platelet suspension. Put plainly: Collagen-induced platelet aggregation in human platelet suspension. Type of assay: cell-based. As to conditions: human platelet suspension; collagen 10 μg/ml; preliminary; compound concentration not given. The method, then:
(§1) Human platelet suspension (PS) was prepared according to the method described previously. Briefly, blood sample, freshly obtained from healthy volunteers who had taken no medications during the preceding 2 weeks, was treated with acid citrate/dextrose (ACD) in a volume ratio of 9:1. After centrifugation at 120 g, 25° C. for 9 min, platelet-rich plasma was transferred into another plastic tube and incubated with heparin (6.4 U/ml) as well as prostaglandin E1 (1 μM). Platelets were spun down by centrifugation at 500 g, 25° C. for 8 min and subsequently washed two times with Tyrode solution (NaH2PO4 0.4 mM; NaCl 136.9 mM; KCl […]; NaHCO3 11.9 mM; CaCl2 2 mM; MgCl2 2.1 mM; glucose 11.1 mM; BSA 3.5 mg/ml; pH 7.35-7.4). The washed platelets were finally suspended in Tyrode's solution and the platelet count was adjusted to 3.75×10^8 platelets/ml. For platelet-rich plasma (PRP) preparation, whole blood was anticoagulated with 1/10 vol of sodium citrate (3.8%, w/v) and centrifuged at 150 g, 25° C. for 9 min.
(§2) Platelet aggregation was measured turbidimetrically with a Lumi-aggregometer (Payton Scientific) at 37° C. under stirring condition (900 rpm). Platelet suspensions were prewarmed to 37° C. for 2 min in a silicone-treated glass cuvette. Nstpbp5185 was added 3 min before the addition of platelet-aggregation inducers. The extent of platelet aggregation was determined by recording the increase of light transmission relative to that of control (maximal aggregation, as 100%) for 6 min after the addition of inducer. The final volume and platelet count for measuring platelet aggregation were 500 μl and 3×10^8/ml, respectively.

Assay [2] relates to human platelet suspension. The assay is described as follows: ADP-induced platelet aggregation in human platelet suspension. Type of assay: cell-based. To be noted: human platelet suspension; preliminary; compound concentration not given. The method, then:
as §1, §2

The subject of assay [3] is human platelet suspension. The assay is described as follows: U46619-induced platelet aggregation in human platelet suspension. The class given is cell-based. To be noted: for IC50: Homo sapiens, Platelet, U46619-induced aggregation, platelet suspension, read-out: P.S(U46619) IC50. The procedure:
as §1, §2

A further assay addresses T1, Thromboxane synthase (Homo sapiens, UniProt P24557).
T1 construct: MDS
T1 sequence (P24557 1-533): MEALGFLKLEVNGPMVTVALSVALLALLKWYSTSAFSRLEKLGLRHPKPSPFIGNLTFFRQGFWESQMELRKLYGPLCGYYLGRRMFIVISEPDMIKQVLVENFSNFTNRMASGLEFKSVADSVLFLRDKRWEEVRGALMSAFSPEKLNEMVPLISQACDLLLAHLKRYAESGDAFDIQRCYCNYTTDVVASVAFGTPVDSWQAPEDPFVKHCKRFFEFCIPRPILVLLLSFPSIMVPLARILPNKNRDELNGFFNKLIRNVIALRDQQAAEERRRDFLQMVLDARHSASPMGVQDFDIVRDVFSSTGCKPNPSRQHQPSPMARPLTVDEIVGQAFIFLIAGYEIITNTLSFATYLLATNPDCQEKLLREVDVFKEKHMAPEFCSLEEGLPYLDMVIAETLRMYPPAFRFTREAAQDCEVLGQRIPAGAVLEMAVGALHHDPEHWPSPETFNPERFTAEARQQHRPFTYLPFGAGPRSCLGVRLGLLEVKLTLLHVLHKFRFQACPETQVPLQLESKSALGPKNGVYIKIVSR
To be noted: cited from earlier work; for Thromboxane synthase: Table III arrows, reference drugs.

A further assay has as its target T2, thromboxane receptor (Homo sapiens, UniProt P21731).
T2 sequence (P21731 1-343): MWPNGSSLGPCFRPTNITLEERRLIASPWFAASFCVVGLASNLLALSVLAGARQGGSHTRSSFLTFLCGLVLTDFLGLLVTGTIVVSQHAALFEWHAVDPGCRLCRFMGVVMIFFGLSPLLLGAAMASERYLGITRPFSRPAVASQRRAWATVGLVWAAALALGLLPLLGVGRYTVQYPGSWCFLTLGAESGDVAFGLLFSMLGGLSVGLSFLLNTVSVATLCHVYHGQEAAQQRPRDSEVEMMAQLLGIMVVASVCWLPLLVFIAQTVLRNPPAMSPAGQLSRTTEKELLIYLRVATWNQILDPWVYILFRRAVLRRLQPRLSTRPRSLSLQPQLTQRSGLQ
As to conditions: cited from earlier work; for Thromboxane receptor: Table III arrows, reference drugs.

Another assay concerns PGI2 formation. To be noted: Table III arrows, reference drugs; cited from earlier work.
In another assay the test system is mice carotid artery. Put plainly: FeCl3-induced thrombus formation in mice carotid artery. Type of assay: in vivo. The procedure:
FIG. 14 The antithrombotic activity of nstpbp5185 in FeCl3-induced thrombi formation in mice carotid artery. (A) Mice were intravenously administered with Heparin (10 or 100 U kg^−1), Aspirin (40 or 80 μg g^−1), or different doses of nstpbp5185 (B). After 5 min, FeCl3 injury was induced by a filter paper saturated with ferric chloride solution (10%). After removal of the paper, carotid blood flow (ml min^−1) was monitored continuously until thromboembolism formation or for 60 min. (C) Mice were orally administered with different doses of Aspirin and nstpbp5185 (D). Both drugs were suspended in 1% CMC. Blood flow monitoring were recorded used analyzed Labchart software (AD instruments). Data are presented as the mean±SEM (n≧3). **P<0.01 and ***P<0.001 as compared with the vehicle control (DMSO).
Mice were intravenously or orally administered with different doses of nstpbp5185.

One may read the IC50 as the point on the concentration scale where inhibition reaches its midpoint.

As for `COc1cccc(Cn2c(-c3ccc(C)o3)nc3ccccc32)c1` [Example 6], the “% inhibition collagen” value in assay [1] turned out to be 19.1%. In addition, in assay [2], the “% inhibition ADF” value was 41.4 (n = 2) %.

Consider `Cc1ccc(Cn2c(-c3ccc(C)o3)nc3ccccc32)cc1` [Example 9, 1-(p-Methylbenzyl)-2-(5-methyl-2-furyl)benzimidazole], for which the “% inhibition collagen” value in assay [1] came to 1.1%. In assay [2], the “% inhibition ADF” value is 17.4 (n = 3) %. Also, the IC50 in assay [3] was 4.63 µM.

In the case of `Cc1ccc(Cn2c(-c3ccc(C)o3)nc3cc(Cl)c(Cl)cc32)cc1` [Example 66, 5,6-dichloro-1-(4-methylbenzyl)-2-(5-methyl-2-furyl)benzimidazole], the IC50 in assay [3] was 40.3 µM.

For `Cc1cccc(Cn2c(-c3ccc(C)o3)nc3cc(Cl)c(Cl)cc32)c1` [Example 67, 5,6-dichloro-1-(3-methylbenzyl)-2-(5-methyl-2-furyl)benzimidazole], the IC50 in assay [3] was 6.52 µM.

Consider `Cc1ccc(-c2nc3cc(Cl)c(Cl)cc3n2Cc2ccccc2C)o1` [Example 68, 5,6-dichloro-1-(2-methylbenzyl)-2-(5-methyl-2-furyl)benzimidazole], for which the IC50 in assay [3] worked out at 5.69 µM.

As for `Cc1ccc(-c2nc3ccc(C(=O)c4ccccc4)cc3[nH]2)o1` [Example 69, 6-benzoyl-2-(5-methyl-2-furyl)benzimidazole], the IC50 in assay [3] is greater than 50 µM.

Regarding `Cc1ccc(-c2nc3ccc(C(=O)c4ccccc4)cc3n2Cc2ccccc2)o1` [Example 69a, 1-Benzyl-6-benzoyl-2-(5-methyl-2-furyl)benzimidazole], the IC50 in assay [3] turned out to be 17.2 µM.

For the molecule `Cc1ccc(-c2nc3ccc(C(=O)c4ccccc4)cc3n2Cc2ccc(Cl)cc2)o1` [Example 73, 6-Benzoyl-1-(4-chlorobenzyl)-2-(5-methyl-2-furyl)benzimidazole], the IC50 in assay [3] was greater than 50 µM.

As for `Cc1ccc(-c2nc3ccc(C(=O)c4ccccc4)cc3n2Cc2cccc(Cl)c2)o1` [Example 74, 6-benzoyl-1-(3-chlorobenzyl)-2-(5-methyl-2-furyl)benzimidazole], the IC50 in assay [3] is 19.2 µM.

As to `COc1ccc(Cn2c(-c3ccc(C)o3)nc3ccc(C(=O)c4ccccc4)cc32)cc1` [Example 76, 6-benzoyl-1-(4-methoxybenzyl)-2-(5-methyl-2-furyl)benzimidazole], the IC50 in assay [3] was greater than 50 µM.

Regarding `COc1cccc(Cn2c(-c3ccc(C)o3)nc3ccc(C(=O)c4ccccc4)cc32)c1` [Example 77, 6-benzoyl-1-(3-methoxybenzyl)-2-(5-methyl-2-furyl)benzimidazole], the IC50 in assay [3] was greater than 50 µM.

For `Cc1ccc(-c2nc3ccc(C(=O)c4ccccc4)cc3n2Cc2ccc(F)cc2)o1` [Example 78, 6-benzoyl-1-(4-fluorobenzyl)-2-(5-methyl-2-furyl)benzimidazole], the IC50 in assay [3] worked out at 25.8 µM.

On to `Cc1ccc(-c2nc3ccc(C(=O)c4ccccc4)cc3n2Cc2cccc(F)c2)o1` [Example 79, 6-Benzoyl-1-(3-fluorobenzyl)-2-(5-methyl-2-furyl)benzimidazole], for which the IC50 in assay [3] is greater than 50 µM.

For the molecule `Cc1ccc(-c2nc3ccc(C(=O)c4ccccc4)cc3n2Cc2ccccc2F)o1` [Example 80, 6-benzoyl-1-(2-fluorobenzyl)-2-(5-methyl-2-furyl)benzimidazole], the IC50 in assay [3] is greater than 50 µM.

On to `Cc1ccc(Cn2c(-c3ccc(C)o3)nc3ccc(C(=O)c4ccccc4)cc32)cc1` [Example 81, 6-benzoyl-1-(4-methylbenzyl)-2-(5-methyl-2-furyl)benzimidazole], for which the IC50 in assay [3] is greater than 50 µM.

For `Cc1ccc(-c2nc3ccc(C(=O)c4ccccc4)cc3n2Cc2ccccc2C)o1` [Example 83, 6-benzoyl-1-(2-methylbenzyl)-2-(5-methyl-2-furyl)benzimidazole], the IC50 in assay [3] is greater than 50 µM.

As to `Cc1ccc2c(c1CCC(=O)O)CC[C@@H](NS(=O)(=O)c1ccc(Cl)cc1)C2` [Example S18886], the Thromboxane synthase result on Thromboxane synthase is recorded as “↓”. Also, the Thromboxane receptor entry at thromboxane receptor is “↓”.

As to `O=C(O)CCCCO/N=C(/c1cccnc1)c1cccc(C(F)(F)F)c1` [Ridogrel], the Thromboxane synthase result on Thromboxane synthase is reported as “↓”. Moreover, the IC50 is 0.001 µM at Thromboxane synthase (reference drug) and 1 µM at thromboxane receptor (reference drug). In addition, the Thromboxane receptor result at thromboxane receptor is on record as “↓”. Further, the PGI2 formation entry with PGI2 formation was “↑”.

As for `COc1ccc2c(c1)c(CC(=O)O)c(C)n2C(=O)c1ccc(Cl)cc1` [indomethacin, reference compound], the “effect on U46619-induced platelet aggregation” value in assay [3] (U46619 1 μM, indomethacin concentration not given) is recorded as “without effects”.

In the case of heparin, the “time to FeCl3-induced occlusion” value in the assay with mice carotid artery (heparin 10 U kg^−1 or aspirin 40 μg g^−1 i.v.) was “about 10 min”. The FeCl3-induced thrombus formation result with mice carotid artery (heparin 100 U kg^−1 or aspirin 80 μg g^−1 i.v.) is “blocked”.
